Test results from patent publication US20150105252A1, “SUBSTITUTED PYRAZOLES AS HERBICIDES” (E I DU PONT DE NEMOURS AND COMPANY, priority 2013, published 2015).

Experiments:
Test in all cases: Test C postemergence
blackgrass = format: in vivo, Alopecurus myosuroides
Outline: (§1)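 Visual control ratings on a 0–100 scale (100 = complete control) made against untreated controls after 13 to 15 days in greenhouse. Compounds applied in surfactant-containing solvent mixture, either preemergence to loam/sand-sown seeds or postemergence to 1- to 4-leaf plants (2–18 cm) in peat medium.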

chickweed = format: in vivo, Stellaria media
Outline: as §1

nutsedge, yellow = format: in vivo, Cyperus esculentus
Outline: as §1

johnsongrass = format: in vivo, Sorghum halepense
Outline: as §1

corn = format: in vivo, Zea mays
Outline: as §1

oilseed rape = format: in vivo, Brassica napus
Outline: as §1

oat, wild = format: in vivo, Avena fatua
Outline: as §1

morningglory = format: in vivo, Ipomoea coccinea
Outline: as §1

kochia = format: in vivo, Kochia scoparia
Outline: as §1

foxtail, giant = format: in vivo, Setaria faberii
Outline: as §1

velvetleaf = format: in vivo, Abutilon theophrasti
Outline: as §1

pigweed = format: in vivo, Amaranthus retroflexus
Outline: as §1

ryegrass, Italian = format: in vivo, Lolium multiflorum
Outline: as §1

galium = format: in vivo, Galium aparine
Outline: as §1

ragweed = format: in vivo, Ambrosia elation
Outline: as §1

soybean = format: in vivo, Glycine max
Outline: as §1

crabgrass, large = format: in vivo, Digitaria sanguinalis
Outline: as §1

waterhemp = format: in vivo, Amaranthus rudis
Outline: as §1

[1] = Postemergence, 31 g ai/ha, visually evaluated after 13 to 15 days
[2] = postemergence, 62 g ai/ha, scale 0 to 100
[3] = postemergence, 250 g ai/ha, scale 0 to 100 (0 no effect, 100 complete control)
[4] = postemergence, 125 g ai/ha, scale 0 to 100, 0 no effect, 100 complete control

CCCc1cc(C(=O)NCC(F)(F)F)nn1Cc1ccnc(C(F)(F)F)c1 [Compound 105]
Plant response rating (scale of 0 to 100 where 0 is no effect and 100 is complete control), Blackgrass (blackgrass; [1]): 10
Blackgrass plant response rating (blackgrass; [2]): 30
Plant response rating, Blackgrass (blackgrass; [3]): 60
Plant response rating, Blackgrass (blackgrass; [4]): 35
Plant response rating (scale of 0 to 100 where 0 is no effect and 100 is complete control), Chickweed (chickweed; [1]): 90
Chickweed plant response rating (chickweed; [2]): 90
Plant response rating, Chickweed (chickweed; [3]): 95
Plant response rating, Chickweed (chickweed; [4]): 95
Plant response rating (scale of 0 to 100 where 0 is no effect and 100 is complete control), Nutsedge, Yellow (nutsedge, yellow; [1]): 5
Nutsedge, Yellow plant response rating (nutsedge, yellow; [2]): 5
Plant response rating, Nutsedge, Yellow (nutsedge, yellow; [3]): 40
Plant response rating, Nutsedge, Yellow (nutsedge, yellow; [4]): 20
Plant response rating (scale of 0 to 100 where 0 is no effect and 100 is complete control), Johnsongrass (johnsongrass; [1]): 5
Johnsongrass plant response rating (johnsongrass; [2]): 35
Plant response rating, Johnsongrass (johnsongrass; [3]): 75
Plant response rating, Johnsongrass (johnsongrass; [4]): 45
Plant response rating (scale of 0 to 100 where 0 is no effect and 100 is complete control), Corn (corn; [1]): 15
Corn plant response rating (corn; [2]): 40
Plant response rating, Corn (corn; [3]): 85
Plant response rating, Corn (corn; [4]): 60
Plant response rating (scale of 0 to 100 where 0 is no effect and 100 is complete control), Oilseed Rape (oilseed rape; [1]): 45
Oilseed Rape plant response rating (oilseed rape; [2]): 50
Plant response rating, Oilseed Rape (oilseed rape; [3]): 90
Plant response rating, Oilseed Rape (oilseed rape; [4]): 85
Plant response rating (scale of 0 to 100 where 0 is no effect and 100 is complete control), Oat, Wild (oat, wild; [1]): 25
Oat, Wild plant response rating (oat, wild; [2]): 30
Plant response rating, Oat, Wild (oat, wild; [3]): 60
Plant response rating, Oat, Wild (oat, wild; [4]): 45
Plant response rating (scale of 0 to 100 where 0 is no effect and 100 is complete control), Morningglory (morningglory; [1]): 80
Morningglory plant response rating (morningglory; [2]): 80
Plant response rating, Morningglory (morningglory; [3]): 95
Plant response rating, Morningglory (morningglory; [4]): 85
Plant response rating (scale of 0 to 100 where 0 is no effect and 100 is complete control), Kochia (kochia; [1]): 90
Kochia plant response rating (kochia; [2]): 90
Plant response rating, Kochia (kochia; [3]): 95
Plant response rating, Kochia (kochia; [4]): 90
Plant response rating (scale of 0 to 100 where 0 is no effect and 100 is complete control), Foxtail, Giant (foxtail, giant; [1]): 15
Foxtail, Giant plant response rating (foxtail, giant; [2]): 40
Plant response rating, Foxtail, Giant (foxtail, giant; [3]): 85
Plant response rating, Foxtail, Giant (foxtail, giant; [4]): 75
Plant response rating (scale of 0 to 100 where 0 is no effect and 100 is complete control), Velvetleaf (velvetleaf; [1]): 40
Velvetleaf plant response rating (velvetleaf; [2]): 55
Plant response rating, Velvetleaf (velvetleaf; [3]): 75
Plant response rating, Velvetleaf (velvetleaf; [4]): 70
Plant response rating (scale of 0 to 100 where 0 is no effect and 100 is complete control), Pigweed (pigweed; [1]): 75
Pigweed plant response rating (pigweed; [2]): 85
Plant response rating, Pigweed (pigweed; [3]): 90
Plant response rating, Pigweed (pigweed; [4]): 85
Plant response rating (scale of 0 to 100 where 0 is no effect and 100 is complete control), Ryegrass, Italian (ryegrass, Italian; [1]): 5
Ryegrass, Italian plant response rating (ryegrass, Italian; [2]): 10
Plant response rating, Ryegrass, Italian (ryegrass, Italian; [3]): 45
Plant response rating, Ryegrass, Italian (ryegrass, Italian; [4]): 30
Plant response rating (scale of 0 to 100 where 0 is no effect and 100 is complete control), Galium (galium; [1]): 55
Galium plant response rating (galium; [2]): 85
Plant response rating, Galium (galium; [3]): 90
Plant response rating, Galium (galium; [4]): 85
Plant response rating (scale of 0 to 100 where 0 is no effect and 100 is complete control), Ragweed (ragweed; [1]): 30
Ragweed plant response rating (ragweed; [2]): 40
Plant response rating, Ragweed (ragweed; [3]): 80
Plant response rating, Ragweed (ragweed; [4]): 65
Plant response rating (scale of 0 to 100 where 0 is no effect and 100 is complete control), Soybean (soybean; [1]): 80
Soybean plant response rating (soybean; [2]): 80
Plant response rating, Soybean (soybean; [3]): 95
Plant response rating, Soybean (soybean; [4]): 95
Plant response rating (scale of 0 to 100 where 0 is no effect and 100 is complete control), Crabgrass, Large (crabgrass, large; [1]): 35
Crabgrass, Large plant response rating (crabgrass, large; [2]): 45
Plant response rating, Crabgrass, Large (crabgrass, large; [3]): 95
Plant response rating, Crabgrass, Large (crabgrass, large; [4]): 90
Plant response rating (scale of 0 to 100 where 0 is no effect and 100 is complete control), Waterhemp (waterhemp; [1]): 65
Waterhemp plant response rating (waterhemp; [2]): 75
Plant response rating, Waterhemp (waterhemp; [3]): 85
Plant response rating, Waterhemp (waterhemp; [4]): 75
